ChEMBL document CHEMBL3046253, “Design, synthesis and in vitro PDE4 inhibition activity of certain quinazolinone derivatives for treatment of asthma” (Med Chem Res, 2012)

Molecular target: 3',5'-cyclic-AMP phosphodiesterase 4B (Homo sapiens) (UniProt Q07343)
Test: Inhibition of PDE4B2 (unknown origin) using FAM-cAMP as substrate at 10 uM after 60 min by fluorescence polarization assay

Chain of 3',5'-cyclic-AMP phosphodiesterase 4B (Homo sapiens) (Q07343 whole entry): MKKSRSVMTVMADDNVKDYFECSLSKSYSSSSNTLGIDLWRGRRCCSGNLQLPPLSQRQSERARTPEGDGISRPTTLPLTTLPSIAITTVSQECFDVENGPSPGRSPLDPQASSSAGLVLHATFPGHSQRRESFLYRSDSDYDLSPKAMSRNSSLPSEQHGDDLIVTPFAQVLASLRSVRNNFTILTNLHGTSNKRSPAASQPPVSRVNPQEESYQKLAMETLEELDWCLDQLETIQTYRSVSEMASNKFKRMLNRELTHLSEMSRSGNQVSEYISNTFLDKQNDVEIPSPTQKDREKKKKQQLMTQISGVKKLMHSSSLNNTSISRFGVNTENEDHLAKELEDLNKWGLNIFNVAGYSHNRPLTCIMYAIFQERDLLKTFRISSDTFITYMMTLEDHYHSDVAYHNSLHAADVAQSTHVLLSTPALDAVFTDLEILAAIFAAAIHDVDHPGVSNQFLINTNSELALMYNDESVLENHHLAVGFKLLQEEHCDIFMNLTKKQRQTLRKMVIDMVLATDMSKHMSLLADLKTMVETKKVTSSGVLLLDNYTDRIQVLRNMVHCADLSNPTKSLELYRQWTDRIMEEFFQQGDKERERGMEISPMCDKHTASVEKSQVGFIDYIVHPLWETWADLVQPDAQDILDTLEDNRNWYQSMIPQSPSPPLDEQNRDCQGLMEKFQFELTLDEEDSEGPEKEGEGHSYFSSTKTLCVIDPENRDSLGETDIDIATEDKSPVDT

CCCCN1C(=O)c2ccccc2NC1c1cccc([N+](=O)[O-])c1 (stereo not given)
inhibition: 15%

CCCCn1c(=O)c2ccccc2n2c(-c3cccc([N+](=O)[O-])c3)nnc12
inhibition: 44%

CCCCn1c(N/N=C/c2ccc(N(C)C)cc2)nc2ccccc2c1=O
inhibition: 19%

CCCCn1c(=O)c2ccccc2n2c(-c3ccc(O)c(OC)c3)nnc12
inhibition: 62%

CCCCN1C(=O)c2ccccc2NC1c1ccc(O)c(OC)c1 (stereo not given)
inhibition: 15%

CCCCn1c(N/N=C/c2cccc(O)c2)nc2ccccc2c1=O
inhibition: 11%

CCCCn1c(=O)c2ccccc2n2c(-c3ccc(N(C)C)cc3)nnc12
inhibition: 6%

COc1ccc(C2CNC(=O)C2)cc1OC1CCCC1 (stereo not given)
inhibition: 90%

CCCCN1C(=O)c2ccccc2NC1c1ccc(N(C)C)cc1 (stereo not given)
inhibition: 7%

CCCCn1c(=O)c2ccccc2n2c(-c3cccc(O)c3)nnc12
inhibition: 44%
